According to publication PMC7494392 (Journal of Pain Research, 2020):

Molecular target: TRPV1 (Rattus norvegicus, UniProt O35433)
Experiment: Fura-2 calcium imaging in rat DRG neurons
Format: cell-based

Chain of TRPV1 (O35433 whole entry): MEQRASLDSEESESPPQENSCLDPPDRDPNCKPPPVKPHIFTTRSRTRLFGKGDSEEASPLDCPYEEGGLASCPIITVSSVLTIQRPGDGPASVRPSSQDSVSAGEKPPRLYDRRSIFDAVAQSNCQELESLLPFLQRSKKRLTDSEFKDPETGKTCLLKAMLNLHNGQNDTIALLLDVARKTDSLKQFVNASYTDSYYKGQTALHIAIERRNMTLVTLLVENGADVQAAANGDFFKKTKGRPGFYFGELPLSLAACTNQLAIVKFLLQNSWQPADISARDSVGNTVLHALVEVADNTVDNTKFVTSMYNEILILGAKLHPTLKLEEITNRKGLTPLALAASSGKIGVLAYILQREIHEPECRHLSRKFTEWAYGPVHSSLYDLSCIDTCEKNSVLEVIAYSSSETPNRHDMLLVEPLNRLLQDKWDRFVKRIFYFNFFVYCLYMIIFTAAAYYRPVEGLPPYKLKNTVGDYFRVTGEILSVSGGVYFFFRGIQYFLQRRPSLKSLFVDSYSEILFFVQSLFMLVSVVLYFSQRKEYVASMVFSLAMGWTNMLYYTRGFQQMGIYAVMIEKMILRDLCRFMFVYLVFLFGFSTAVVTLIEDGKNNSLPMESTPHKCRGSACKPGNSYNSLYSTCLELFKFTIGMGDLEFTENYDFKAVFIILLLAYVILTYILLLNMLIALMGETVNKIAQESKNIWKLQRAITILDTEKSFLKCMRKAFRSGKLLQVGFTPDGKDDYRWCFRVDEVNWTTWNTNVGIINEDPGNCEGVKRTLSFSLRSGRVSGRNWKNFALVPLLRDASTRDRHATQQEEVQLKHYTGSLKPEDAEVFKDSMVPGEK

Compound: C=C(C)[C@@H]1CCC(C)=C[C@H]1c1c(O)cc(CCCCC)cc1O [CBD, Cannabidiol]
- EC50: 1 to 10 µM
